Several values for one entry are separate records, joined by “and”; a condition that tells them apart may be missing. Equal entries are not always repeated. Numbers after ± are expanded uncertainties.
Conditions: Liquid, Optical interferometry

CO [methanol]
Conditions | thermal diffusivity
297.95 K, 5300000 kPa | 2.19e-07 ± 1.2e-08 m2/s
298.15 K, 4220000 kPa | 2.17e-07 ± 1.2e-08 m2/s
299.15 K, 0 kPa | 9.7e-08 ± 7e-09 m2/s
299.15 K, 880000 kPa | 1.59e-07 ± 1.2e-08 m2/s
299.15 K, 2430000 kPa | 1.86e-07 ± 1.4e-08 m2/s
299.15 K, 3100000 kPa | 1.92e-07 ± 1.3e-08 m2/s
299.15 K, 3120000 kPa | 1.99e-07 ± 1.3e-08 m2/s
299.75 K, 5000000 kPa | 2.37e-07 ± 4.5e-08 m2/s
299.85 K, 400000 kPa | 1.32e-07 ± 1e-08 m2/s
300.15 K, 370000 kPa | 1.35e-07 ± 1e-08 m2/s
300.75 K, 1750000 kPa | 1.8e-07 ± 1e-08 m2/s
300.95 K, 860000 kPa | 1.57e-07 ± 1.4e-08 m2/s
301.05 K, 1290000 kPa | 1.7e-07 m2/s and 1.66e-07 m2/s

Conditions | thermal diffusivity [m2/s]
299.15 K | 9.7e-08 ± 6e-09

From the NIST ThermoML archive (doi:10.1021/acs.jced.7b00222)
